Data on 11 molecules can be found in ChEMBL document CHEMBL1201862, “PubChem BioAssay data set” (2004).

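Growth conditions: 96-well plates. Treatment: test compound, 48 hours, 5 concentrations. Analysis: linear interpolation between bracketing concentrations; unreached endpoints set to highest concentration. Here, GI50 denotes the concentration required for 50% inhibition of growth.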 Activity calls are given as the source filed them. Cut-off read from the data, not from the text of the source: active = GI50 up to about 1.1 µM and inactive = higher.

Test systems include MDA-MB-435; BT-549; A549; SK-MEL-5; UACC-62; OVCAR-5; NCI-H23; RPMI-8226; HCT-116; 786-0; SK-OV-3; SW-620; NCI-H522; M14; ACHN; PC-3; SR; OVCAR-4; HOP-62; HCC 2998.
Holding throughout (experiment): NCI anticancer screen, dose series, 48 h

For the molecule `CC(O)(CNS(=O)(=O)c1ccccc1)c1ccccc1` (configuration not stated), the GI50 in the experiment on MDA-MB-435, in the experiment on BT-549, in the experiment with A549, with SK-MEL-5, with UACC-62 and in the experiment with OVCAR-5 was > 100 µM (inactive) throughout. In addition, the GI50 with NCI-H23, in the experiment with RPMI-8226, in the experiment with HCT-116, in the experiment with 786-0, in the experiment with SK-OV-3 and with SW-620 was > 100 µM (inactive) throughout. Further, the GI50 with NCI-H522, with M14, with ACHN, in the experiment on PC-3, in the experiment with SR and in the experiment on OVCAR-4 was > 100 µM (inactive) in each case. Also, the GI50 with HOP-62 is > 100 µM (inactive).
As for `NC(=O)CC(N)c1nnn[nH]1` (configuration not stated), the GI50 in the experiment with MDA-MB-435, in the experiment on BT-549, in the experiment with A549, in the experiment with SK-MEL-5, in the experiment with UACC-62 and in the experiment with OVCAR-5 was > 100 µM (inactive) throughout. Besides, the GI50 in the experiment with NCI-H23, with RPMI-8226, in the experiment on HCT-116, with 786-0, in the experiment with SK-OV-3 and with SW-620 was > 100 µM (inactive) throughout. Moreover, the GI50 in the experiment on NCI-H522, in the experiment on M14, with ACHN, in the experiment with PC-3, with SR and with OVCAR-4 was > 100 µM (inactive) throughout. In addition, the GI50 with HOP-62 is > 100 µM (inactive).
In the case of `CN(C)c1ccc(/C=C2\N=C(c3ccccc3)N(c3ccc4c(c3)Sc3cc(N5C(=O)/C(=C/c6ccc(N(C)C)cc6)N=C5c5ccccc5)ccc3N4)C2=O)cc1`, the GI50 with HCC 2998 was 19.6 µM (inactive); with MDA-MB-435, 21.5 µM (inactive); in the experiment on BT-549 it was 22.9 µM (inactive); in the experiment with A549 it was 22.1 µM (inactive); with SK-MEL-5, 17.9 µM (inactive); in the experiment on UACC-62 it was 16.6 µM (inactive). For the same molecule, the GI50 in the experiment on OVCAR-5 was 18.8 µM (inactive); in the experiment with RPMI-8226, 20.4 µM (inactive); in the experiment with HCT-116, 26.3 µM (inactive); with 786-0 it was 22.9 µM (inactive); with SK-OV-3, 13.6 µM (inactive); with SW-620 it was 44.7 µM (inactive). The GI50 in the experiment with M14 is 21.2 µM (inactive); in the experiment on ACHN, 16.7 µM (inactive); in the experiment on PC-3, 16.9 µM (inactive); in the experiment with SR, 90.6 µM (inactive); in the experiment with OVCAR-4 it was 22.6 µM (inactive); with HOP-62, 13.7 µM (inactive).
For the molecule `NC1CC(=O)c2csc(Cl)c21` (configuration not stated), the GI50 was 17.6 µM (inactive) in the experiment on HCC 2998; 12.8 µM (inactive) in the experiment with MDA-MB-435; 17.7 µM (inactive) in the experiment with BT-549; 17.9 µM (inactive) with A549; 18.5 µM (inactive) in the experiment with SK-MEL-5; 10 µM (inactive) with UACC-62. Besides, the GI50 is 19.6 µM (inactive) with OVCAR-5; 20.7 µM (inactive) in the experiment with NCI-H23; 0.234 µM (active) in the experiment on RPMI-8226; 3.86 µM (inactive) in the experiment with HCT-116; 1.55 µM (inactive) in the experiment on 786-0; 17.3 µM (inactive) in the experiment on SK-OV-3. The GI50 with SW-620 is 2.05 µM (inactive); in the experiment with NCI-H522, 1.72 µM (inactive); in the experiment on M14, 8.99 µM (inactive); in the experiment on ACHN, 5.33 µM (inactive); with PC-3 it was 10.1 µM (inactive); with OVCAR-4, 25.9 µM (inactive). Further, the GI50 with HOP-62 was 14.1 µM (inactive).
For the molecule `CC(C)C1=C(Cc2ccccc2)C(=O)O/C1=C\c1ccc(O)c(Cl)c1`, the GI50 is 14.6 µM (inactive) in the experiment with HCC 2998; 17 µM (inactive) in the experiment with MDA-MB-435; 22.2 µM (inactive) with BT-549; 15.1 µM (inactive) with A549; 16.7 µM (inactive) in the experiment with SK-MEL-5; 14.8 µM (inactive) in the experiment on UACC-62. Moreover, the GI50 with OVCAR-5 is 18.4 µM (inactive); in the experiment with NCI-H23, 13.1 µM (inactive); in the experiment with RPMI-8226 it was 12.4 µM (inactive); in the experiment on HCT-116 it was 15.5 µM (inactive); with 786-0 it was 16.5 µM (inactive); in the experiment on SK-OV-3, 19.5 µM (inactive). Besides, the GI50 was 19.1 µM (inactive) in the experiment on SW-620; 17.5 µM (inactive) in the experiment on M14; 14.9 µM (inactive) with ACHN; 17.9 µM (inactive) in the experiment with PC-3; 10.4 µM (inactive) in the experiment with SR; 14.7 µM (inactive) with OVCAR-4. Further, in the experiment with HOP-62, the GI50 was 17.7 µM (inactive).
Consider `O=C1CCC2(O)C3Cc4ccc(Oc5nnnn5-c5ccccc5)c5c4C2(CCN3CC2CC2)C1O5` (configuration not stated), for which the GI50 in the experiment on MDA-MB-435 was 19.9 µM (inactive); in the experiment on BT-549, 96.2 µM (inactive); in the experiment on A549 it was > 100 µM (inactive); with SK-MEL-5 it was 12.8 µM (inactive); in the experiment on UACC-62 it was 28.7 µM (inactive); in the experiment with OVCAR-5, > 100 µM (inactive). For the same molecule, the GI50 with NCI-H23 was > 100 µM (inactive); in the experiment with RPMI-8226 it was 28.9 µM (inactive); with HCT-116, 43.6 µM (inactive); in the experiment on 786-0, 20 µM (inactive); with SK-OV-3, > 100 µM (inactive); with SW-620, 33.7 µM (inactive). For the same molecule, the GI50 was 23.3 µM (inactive) with NCI-H522; 18 µM (inactive) in the experiment with M14; > 100 µM (inactive) in the experiment with ACHN; 67 µM (inactive) in the experiment with PC-3; 15.6 µM (inactive) in the experiment with SR; 79.6 µM (inactive) in the experiment with OVCAR-4. In addition, the GI50 in the experiment with HOP-62 is > 100 µM (inactive).
Consider `CCOC(=O)/C(C(=O)Nc1cccc(C(F)(F)F)c1)=C(/N)N1CCCC1`, for which the GI50 with HCC 2998, in the experiment on MDA-MB-435, with BT-549, in the experiment on A549, in the experiment on UACC-62 and in the experiment on OVCAR-5 was > 100 µM (inactive) throughout. Further, the GI50 with NCI-H23 is > 100 µM (inactive); in the experiment with RPMI-8226, > 100 µM (inactive); in the experiment on HCT-116 it was > 100 µM (inactive); in the experiment on 786-0, 52.6 µM (inactive); in the experiment with SK-OV-3, 52.4 µM (inactive); with SW-620 it was > 100 µM (inactive). Moreover, the GI50 in the experiment with NCI-H522 was > 100 µM (inactive); in the experiment on M14, > 100 µM (inactive); with ACHN it was > 100 µM (inactive); in the experiment with PC-3 it was > 100 µM (inactive); in the experiment on OVCAR-4 it was > 100 µM (inactive); in the experiment with HOP-62 it was 44.6 µM (inactive).
Consider `COc1ccc(-c2cc(O)c3nc4ccccc4n3c2)cc1`, for which the GI50 in the experiment on MDA-MB-435, with BT-549, in the experiment on A549, in the experiment with UACC-62, in the experiment on NCI-H23 and with RPMI-8226 was > 100 µM (inactive) each time. Besides, the GI50 in the experiment with HCT-116, in the experiment with 786-0, in the experiment on SW-620, in the experiment with NCI-H522, in the experiment with M14 and in the experiment on PC-3 was > 100 µM (inactive) in each case. In addition, the GI50 in the experiment with SR, with OVCAR-4 and in the experiment with HOP-62 was > 100 µM (inactive) in each case.
On to `CCCN(CCCc1ccccc1)CCc1ccc2[nH]c(=S)[nH]c2c1`, for which the GI50 is 13.3 µM (inactive) with HCC 2998; 18.7 µM (inactive) in the experiment on MDA-MB-435; 68.9 µM (inactive) in the experiment with BT-549; 34 µM (inactive) in the experiment with A549; 31 µM (inactive) with UACC-62; 48.5 µM (inactive) in the experiment on OVCAR-5. Moreover, the GI50 in the experiment with NCI-H23 is 40.6 µM (inactive); in the experiment with RPMI-8226 it was 12.4 µM (inactive); in the experiment with HCT-116 it was 13.1 µM (inactive); with 786-0 it was 12.6 µM (inactive); in the experiment on SK-OV-3, 53.8 µM (inactive); in the experiment with SW-620, 27 µM (inactive). Further, the GI50 with M14 was 16.7 µM (inactive); with ACHN, 29.2 µM (inactive); with PC-3 it was 41.6 µM (inactive); in the experiment with SR, 2.89 µM (inactive); in the experiment with OVCAR-4 it was 76.4 µM (inactive); in the experiment on HOP-62 it was 26.5 µM (inactive).
Turning to `O=C1Nc2ccccc2/C1=C\c1c(-c2ccccc2)nc2n1CCS2`, the GI50 was 16.4 µM (inactive) in the experiment on HCC 2998; 8.93 µM (inactive) in the experiment with MDA-MB-435; 20 µM (inactive) in the experiment with BT-549; 28.4 µM (inactive) in the experiment with A549; 16.5 µM (inactive) in the experiment with SK-MEL-5; 13 µM (inactive) with UACC-62. Besides, the GI50 was 17.5 µM (inactive) with OVCAR-5; 22.9 µM (inactive) in the experiment with NCI-H23; 22.6 µM (inactive) in the experiment with RPMI-8226; 20.8 µM (inactive) in the experiment with HCT-116; 19.6 µM (inactive) in the experiment with 786-0; 21.4 µM (inactive) in the experiment with SK-OV-3. The GI50 in the experiment with SW-620 is 29.3 µM (inactive); with NCI-H522 it was 18.7 µM (inactive); with M14, 30.3 µM (inactive); in the experiment with ACHN, 23.6 µM (inactive); in the experiment on PC-3 it was 19.1 µM (inactive); in the experiment on OVCAR-4, 29 µM (inactive). Further, the GI50 in the experiment with HOP-62 was 29.2 µM (inactive).
On to `Cc1ccc2cccc3c2c1CC1(C3=O)S(=O)(=O)OCCOS1(=O)=O`, for which the GI50 with HCC 2998, in the experiment with MDA-MB-435, in the experiment with BT-549, with A549, in the experiment with SK-MEL-5 and with UACC-62 was > 100 µM (inactive) in each case. Also, the GI50 with OVCAR-5, with NCI-H23, in the experiment on RPMI-8226, with HCT-116, in the experiment with 786-0 and in the experiment with SK-OV-3 was > 100 µM (inactive) each time. The GI50 in the experiment on SW-620, with NCI-H522, in the experiment on M14, in the experiment with ACHN, in the experiment with PC-3 and with OVCAR-4 was > 100 µM (inactive) throughout. In the experiment with HOP-62, the GI50 was > 100 µM (inactive).
